In ChEMBL document CHEMBL5724914, “Linking interpersonal differences in gut microbiota composition and drug biotransformation activity” (2024):

test: (§1) The drug is tested on Z-021 corresponding to metagenome with ENA study accession number: PRJEB37062 and ENA sample accession number: ERS12561820 for biotransformation under anaerobic condition. The drug concentrations were measured over 9 timepoints collected between 0 and 24 hours of incubation by liquid-chromatography-coupled mass spectrometry (LC–MS); conditions: 2 µM
Also: call rule not given here.

| SMILES | Bacterial Biotransformation |
| --- | --- |
| CCCC(C)(COC(N)=O)COC(=O)NC(C)C (stereo not given) [CARISOPRODOL] | Compound NOT metabolized |
| COc1ccccc1OCCNCC(O)COc1cccc2[nH]c3ccccc3c12 (stereo not given) [CARVEDILOL] | Compound NOT metabolized |
| CC(C)(C)NCC(O)c1cc(Cl)c(N)c(Cl)c1 (stereo not given) [CLENBUTEROL] | Compound NOT metabolized |

conditions: human gut metagenome, 24 h, 2 µM

| SMILES | Bacterial Biotransformation |
| --- | --- |
| CCCC(C)(COC(N)=O)COC(=O)NC(C)C (stereo not given) [CARISOPRODOL] | Compound metabolized |
| COc1ccccc1OCCNCC(O)COc1cccc2[nH]c3ccccc3c12 (stereo not given) [CARVEDILOL] | Compound metabolized |
| CC(C)(C)NCC(O)c1cc(Cl)c(N)c(Cl)c1 (stereo not given) [CLENBUTEROL] | Compound NOT metabolized |

conditions: human gut metagenome, 24 h, 2 µM; remark: another data set of the same source

| SMILES | Bacterial Biotransformation |
| --- | --- |
| CCCC(C)(COC(N)=O)COC(=O)NC(C)C (stereo not given) [CARISOPRODOL] | Compound metabolized |
| COc1ccccc1OCCNCC(O)COc1cccc2[nH]c3ccccc3c12 (stereo not given) [CARVEDILOL] | Compound NOT metabolized |
| CC(C)(C)NCC(O)c1cc(Cl)c(N)c(Cl)c1 (stereo not given) [CLENBUTEROL] | Compound NOT metabolized |

test: (§2) The drug is tested on WLS-090 corresponding to human gut metagenome with ENA study accession number: PRJEB37062 and ENA sample accession number: ERS12561753 for biotransformation under anaerobic condition. The drug concentrations were measured over 9 timepoints collected between 0 and 24 hours of incubation by liquid-chromatography-coupled mass spectrometry (LC–MS); conditions: 2 µM

| SMILES | Bacterial Biotransformation |
| --- | --- |
| CCCC(C)(COC(N)=O)COC(=O)NC(C)C (stereo not given) [CARISOPRODOL] | Compound metabolized |
| COc1ccccc1OCCNCC(O)COc1cccc2[nH]c3ccccc3c12 (stereo not given) [CARVEDILOL] | Compound metabolized |
| CC(C)(C)NCC(O)c1cc(Cl)c(N)c(Cl)c1 (stereo not given) [CLENBUTEROL] | Compound NOT metabolized |

test: as §1, with “Z-005” for “Z-021”, “ERS12561805” for “ERS12561820”; conditions: 2 µM

| SMILES | Bacterial Biotransformation |
| --- | --- |
| CCCC(C)(COC(N)=O)COC(=O)NC(C)C (stereo not given) [CARISOPRODOL] | Compound metabolized |
| COc1ccccc1OCCNCC(O)COc1cccc2[nH]c3ccccc3c12 (stereo not given) [CARVEDILOL] | Compound NOT metabolized |
| CC(C)(C)NCC(O)c1cc(Cl)c(N)c(Cl)c1 (stereo not given) [CLENBUTEROL] | Compound NOT metabolized |

conditions: human gut metagenome, 24 h, 2 µM; remark: another data set of the same source

| SMILES | Bacterial Biotransformation |
| --- | --- |
| CCCC(C)(COC(N)=O)COC(=O)NC(C)C (stereo not given) [CARISOPRODOL] | Compound metabolized |
| COc1ccccc1OCCNCC(O)COc1cccc2[nH]c3ccccc3c12 (stereo not given) [CARVEDILOL] | Compound metabolized |
| CC(C)(C)NCC(O)c1cc(Cl)c(N)c(Cl)c1 (stereo not given) [CLENBUTEROL] | Compound NOT metabolized |

test: as §2, with “WLS-082” for “WLS-090”, “ERS12561751” for “ERS12561753”; conditions: 2 µM

| SMILES | Bacterial Biotransformation |
| --- | --- |
| CCCC(C)(COC(N)=O)COC(=O)NC(C)C (stereo not given) [CARISOPRODOL] | Compound metabolized |
| COc1ccccc1OCCNCC(O)COc1cccc2[nH]c3ccccc3c12 (stereo not given) [CARVEDILOL] | Compound metabolized |
| CC(C)(C)NCC(O)c1cc(Cl)c(N)c(Cl)c1 (stereo not given) [CLENBUTEROL] | Compound NOT metabolized |

test: as §2, with “Z-014” for “WLS-090”, “rat” for “human”, “ERS12561814” for “ERS12561753”; conditions: 2 µM

| SMILES | Bacterial Biotransformation |
| --- | --- |
| CCCC(C)(COC(N)=O)COC(=O)NC(C)C (stereo not given) [CARISOPRODOL] | Compound metabolized |
| COc1ccccc1OCCNCC(O)COc1cccc2[nH]c3ccccc3c12 (stereo not given) [CARVEDILOL] | Compound NOT metabolized |
| CC(C)(C)NCC(O)c1cc(Cl)c(N)c(Cl)c1 (stereo not given) [CLENBUTEROL] | Compound NOT metabolized |

test: as §2, with “WLS-086” for “WLS-090”, “ERS12561752” for “ERS12561753”; conditions: 2 µM

| SMILES | Bacterial Biotransformation |
| --- | --- |
| CCCC(C)(COC(N)=O)COC(=O)NC(C)C (stereo not given) [CARISOPRODOL] | Compound metabolized |
| COc1ccccc1OCCNCC(O)COc1cccc2[nH]c3ccccc3c12 (stereo not given) [CARVEDILOL] | Compound metabolized |
| CC(C)(C)NCC(O)c1cc(Cl)c(N)c(Cl)c1 (stereo not given) [CLENBUTEROL] | Compound NOT metabolized |

conditions: human gut metagenome, 24 h, 2 µM; remark: another data set of the same source

| SMILES | Bacterial Biotransformation |
| --- | --- |
| CCCC(C)(COC(N)=O)COC(=O)NC(C)C (stereo not given) [CARISOPRODOL] | Compound metabolized |
| COc1ccccc1OCCNCC(O)COc1cccc2[nH]c3ccccc3c12 (stereo not given) [CARVEDILOL] | Compound metabolized |
| CC(C)(C)NCC(O)c1cc(Cl)c(N)c(Cl)c1 (stereo not given) [CLENBUTEROL] | Compound NOT metabolized |

test: as §2, with “WLS-039” for “WLS-090”, “ERS12561746” for “ERS12561753”; conditions: 2 µM

| SMILES | Bacterial Biotransformation |
| --- | --- |
| CCCC(C)(COC(N)=O)COC(=O)NC(C)C (stereo not given) [CARISOPRODOL] | Compound metabolized |
| COc1ccccc1OCCNCC(O)COc1cccc2[nH]c3ccccc3c12 (stereo not given) [CARVEDILOL] | Compound metabolized |
| CC(C)(C)NCC(O)c1cc(Cl)c(N)c(Cl)c1 (stereo not given) [CLENBUTEROL] | Compound NOT metabolized |

test: as §1, with “Z-010” for “Z-021”, “ERS12561810” for “ERS12561820”; conditions: 2 µM

| SMILES | Bacterial Biotransformation |
| --- | --- |
| CCCC(C)(COC(N)=O)COC(=O)NC(C)C (stereo not given) [CARISOPRODOL] | Compound metabolized |
| COc1ccccc1OCCNCC(O)COc1cccc2[nH]c3ccccc3c12 (stereo not given) [CARVEDILOL] | Compound metabolized |
| CC(C)(C)NCC(O)c1cc(Cl)c(N)c(Cl)c1 (stereo not given) [CLENBUTEROL] | Compound NOT metabolized |

test: as §2, with “Z-017” for “WLS-090”, “mouse” for “human”, “ERS12561816” for “ERS12561753”; conditions: 2 µM

| SMILES | Bacterial Biotransformation |
| --- | --- |
| CCCC(C)(COC(N)=O)COC(=O)NC(C)C (stereo not given) [CARISOPRODOL] | Compound NOT metabolized |
| COc1ccccc1OCCNCC(O)COc1cccc2[nH]c3ccccc3c12 (stereo not given) [CARVEDILOL] | Compound NOT metabolized |
| CC(C)(C)NCC(O)c1cc(Cl)c(N)c(Cl)c1 (stereo not given) [CLENBUTEROL] | Compound NOT metabolized |

test: as §2, with “Z-019” for “WLS-090”, “rat” for “human”, “ERS12561818” for “ERS12561753”; conditions: 2 µM

| SMILES | Bacterial Biotransformation |
| --- | --- |
| CCCC(C)(COC(N)=O)COC(=O)NC(C)C (stereo not given) [CARISOPRODOL] | Compound NOT metabolized |
| COc1ccccc1OCCNCC(O)COc1cccc2[nH]c3ccccc3c12 (stereo not given) [CARVEDILOL] | Compound NOT metabolized |
| CC(C)(C)NCC(O)c1cc(Cl)c(N)c(Cl)c1 (stereo not given) [CLENBUTEROL] | Compound NOT metabolized |

test: as §2, with “Z-018” for “WLS-090”, “pig” for “human”, “ERS12561817” for “ERS12561753”; conditions: 2 µM

| SMILES | Bacterial Biotransformation |
| --- | --- |
| CCCC(C)(COC(N)=O)COC(=O)NC(C)C (stereo not given) [CARISOPRODOL] | Compound metabolized |
| COc1ccccc1OCCNCC(O)COc1cccc2[nH]c3ccccc3c12 (stereo not given) [CARVEDILOL] | Compound NOT metabolized |
| CC(C)(C)NCC(O)c1cc(Cl)c(N)c(Cl)c1 (stereo not given) [CLENBUTEROL] | Compound NOT metabolized |

conditions: human gut metagenome, 24 h, 2 µM; remark: another data set of the same source

| SMILES | Bacterial Biotransformation |
| --- | --- |
| CCCC(C)(COC(N)=O)COC(=O)NC(C)C (stereo not given) [CARISOPRODOL] | Compound metabolized |
| COc1ccccc1OCCNCC(O)COc1cccc2[nH]c3ccccc3c12 (stereo not given) [CARVEDILOL] | Compound NOT metabolized |
| CC(C)(C)NCC(O)c1cc(Cl)c(N)c(Cl)c1 (stereo not given) [CLENBUTEROL] | Compound NOT metabolized |

test: as §2, with “WLS-170” for “WLS-090”, “ERS12561762” for “ERS12561753”; conditions: 2 µM

| SMILES | Bacterial Biotransformation |
| --- | --- |
| CCCC(C)(COC(N)=O)COC(=O)NC(C)C (stereo not given) [CARISOPRODOL] | Compound metabolized |
| COc1ccccc1OCCNCC(O)COc1cccc2[nH]c3ccccc3c12 (stereo not given) [CARVEDILOL] | Compound metabolized |
| CC(C)(C)NCC(O)c1cc(Cl)c(N)c(Cl)c1 (stereo not given) [CLENBUTEROL] | Compound NOT metabolized |

test: as §2, with “Z-001” for “WLS-090”, “mouse” for “human”, “ERS12561801” for “ERS12561753”; conditions: 2 µM

| SMILES | Bacterial Biotransformation |
| --- | --- |
| CCCC(C)(COC(N)=O)COC(=O)NC(C)C (stereo not given) [CARISOPRODOL] | Compound metabolized |
| COc1ccccc1OCCNCC(O)COc1cccc2[nH]c3ccccc3c12 (stereo not given) [CARVEDILOL] | Compound NOT metabolized |
| CC(C)(C)NCC(O)c1cc(Cl)c(N)c(Cl)c1 (stereo not given) [CLENBUTEROL] | Compound NOT metabolized |

test: as §2, with “WLS-027” for “WLS-090”, “ERS12561744” for “ERS12561753”; conditions: 2 µM

| SMILES | Bacterial Biotransformation |
| --- | --- |
| CCCC(C)(COC(N)=O)COC(=O)NC(C)C (stereo not given) [CARISOPRODOL] | Compound metabolized |
| COc1ccccc1OCCNCC(O)COc1cccc2[nH]c3ccccc3c12 (stereo not given) [CARVEDILOL] | Compound metabolized |
| CC(C)(C)NCC(O)c1cc(Cl)c(N)c(Cl)c1 (stereo not given) [CLENBUTEROL] | Compound NOT metabolized |

conditions: human gut metagenome, 24 h, 2 µM; remark: another data set of the same source

| SMILES | Bacterial Biotransformation |
| --- | --- |
| CCCC(C)(COC(N)=O)COC(=O)NC(C)C (stereo not given) [CARISOPRODOL] | Compound metabolized |
| COc1ccccc1OCCNCC(O)COc1cccc2[nH]c3ccccc3c12 (stereo not given) [CARVEDILOL] | Compound metabolized |
| CC(C)(C)NCC(O)c1cc(Cl)c(N)c(Cl)c1 (stereo not given) [CLENBUTEROL] | Compound NOT metabolized |
